Patent publication US4749710A, “Immunosuppressive agents” (priority 1985, dated 1988)

Experiments:
[1] = tested on: IgM production by human lymphocytes; assay: Inhibition of IgM production by human lymphocytes in vitro (SAC activation, ELISA); assay type: cell-based; settings: 8 days, vehicle control 2.49 ± 0.17
Excerpt: (§1) General Test Description Humoral immunity comprises one of the two major arms of the immune system and generally is beneficial. However, a number of disease states are characterized by a hyperactive immune system responding to self tissue antigens. […] In these diseases it would be important to suppress the humoral immune system.
(§2) In the following studies we used established methods to examine the effect of Vitamin D derivatives on the in vitro production of immunoglobulin (Ig) by human peripheral blood leukocytes (PBL) following polyclonal activation. Immunoglobulin was induced from PBL by co-culturing the PBL with the polyclonal B cell activator Staphylococcus aureus strain Cowan I (SAC) for a period of 8 days. The quantity of Ig produced in the culture supernatants was determined by using an enzyme linked immunosorbent assay (ELISA). The effect of Vitamin D derivatives was determined by comparing the amount of antibody produced in cultures containing Vitamin D derivatives to those cultures containing an appropriate concentration of vehicle (ethanol).
(§3) Solutions of vitamin D derivatives. Stock solutions of vitamin D derivatives were prepared as described previously for the murine CTL experiments.
(§4) INDUCTION OF HUMAN IG SECRETION Human peripheral blood mononuclear leukocytes were prepared from one day old buffy coat preparations obtained from the American Red Cross (Lansing, MI). […] Twenty five ml of this preparation were overlayed onto 25 ml of Ficoll-Paque contained in a 50 ml polypropylene centrifuge tube. After centrifugation at 400×g at 15° C. for 40 min, the cells at the interface of the medium and Ficoll were removed and washed 3 times in 50 ml RPMI medium and centrifuged at 300×g for 10 minutes. After the final centrifugation,the cell pellet was suspended in RPMI medium containing 20% fetal bovine serum (FBS) and 80 μg/ml gentamicin. The number of viable cells was determined by trypan blue exclusion and were then suspended to 2.5×10^6 viable cells per ml in RPMI containing 20% FBS and gentamicin. Human PBL were induced to secrete Ig as follows. One hundred microliters of the PBL suspension and an additional 100 μl of a 1:20,000 (v/v) preparation of SAC suspended in RPMI containing 1% FBS were added to each well of a 96-well microtiter plate. Selected wells were also set up without the addition of SAC to serve as negative controls (spontaneous Ig secretion). Each well then received 20 μl of either the appropriate dilution of Vitamin D derivative in RPMI with 1% ethanol or RPMI with 1% ethanol (vehicle control). The vitamin D derivatives were tested at final concentrations of 10^-5, 10^-6, 10^-7, 10^-8, 10^-9, and 10^-10 M and in all cases the vehicle (ethanol) concentration was 0.1%. All treatments were performed in triplicate. […] The samples were then either assayed immediately or stored at -20° C. until assayed by the ELISA technique described below.
(§5) QUANTITATION OF SECRETED IG (ELISA ASSAY) ELISA plates were prepared for quantitating human IgG and IgM levels in culture supernatants as follows. Affinity purified sheep anti-human IgG and goat anti-human IgM (Cappel, Cochranville, PA) were diluted 1:250 and 1:400 respectively, in carbonate coating buffer (0.05M sodium bicarbonate, 0.05M sodium carbonate, 0.15M sodium chloride). One hundred and fifty microliters of the antibody preparation were added to each well of a 96 well ELISA plate (EIA, Costar). The plates were sealed and incubated overnight at 4° C. and on the following day were washed 3 times with distilled water. Each well then received 350 μl of Dulbecco's PBS containing 1 mg/ml bovine serum albumin (BSA) and 0.5 mg/ml sodium azide. The plates were allowed to incubate for 1 hour at 37° C. and then washed 3 times with Dulbecco's PBS containing 0.5% stock Tween 20 (PBS-Tween) followed by 2 washes with distilled water. The plates were air dried and stored desiccated under a vacuum at 4° C. until use.

[2] = tested on: IgG production by human lymphocytes; assay: Inhibition of IgG production by human lymphocytes in vitro (SAC activation, ELISA); assay type: cell-based; settings: 8 days, vehicle control 0.78 ± 0.09
Excerpt: as §1, §2, §3, §4, §5

Structure (SMILES) | IgM μg per culture (x ± S.E.M.) ([1]; 1 × 10^-6 molar) | IgM μg per culture (x ± S.E.M.) ([1]; 1 × 10^-7 molar) [μg per culture] | IgM μg per culture (x ± S.E.M.) ([1]; 1 × 10^-8 molar) [μg per culture] | IgM μg per culture (x ± S.E.M.) ([1]; 1 × 10^-9 molar) [μg per culture] | IgM μg per culture (x ± S.E.M.) ([1]; 1 × 10^-10 molar) [μg per culture] | IgG μg per culture (x ± S.E.M.) ([2]; 1 × 10^-6 molar) | IgG μg per culture (x ± S.E.M.) ([2]; 1 × 10^-7 molar) [μg per culture] | IgG μg per culture (x ± S.E.M.) ([2]; 1 × 10^-8 molar) [μg per culture] | IgG μg per culture (x ± S.E.M.) ([2]; 1 × 10^-9 molar) [μg per culture] | IgG μg per culture (x ± S.E.M.) ([2]; 1 × 10^-10 molar) [μg per culture]
C=C1/C(=C\C=C2/CCC[C@]3(C)[C@@H]([C@H](C)C[C@H](O)CC(C)(C)O)CC[C@@H]23)C[C@@H](O)C[C@@H]1O [1α,23S,25-(OH)3 --D3, 1α,23S,25-Trihydroxycholecalciferol] | undetectable | 0.12 ± 0.07 | 0.46 ± 0.13 | 1.55 ± 0.96 | 4.61 ± 0.73 | 0.01 ± 0.002 μg per culture | 0.02 ± 0.002 | 0.05 ± 0.01 | 1.14 ± 0.61 | 0.54 ± 0.18
C=C1/C(=C\C=C2/CCC[C@]3(C)[C@@H]([C@H](C)/C=C/[C@H](C)[C@](C)(O)CO)CC[C@@H]23)C[C@@H](O)C[C@@H]1O [1α,25S,26-(OH)3 --D2, 1α,25S,26-Trihydroxyergocalciferol] | 0.01 ± 0.006 μg per culture | 0.03 ± 0.01 | 0.14 ± 0.12 | 0.29 ± 0.17 | 1.09 ± 0.26 | undetectable | 0.01 ± 0.005 | 0.07 ± 0.02 | 0.08 ± 0.03 | 0.21 ± 0.06
C=C1/C(=C\C=C2/CCC[C@]3(C)[C@@H]([C@H](C)C=CC[C@](C)(O)CO)CC[C@@H]23)C[C@@H](O)C[C@@H]1O [1α,25S,26-(OH)3 --Δ^22 -D3, 1α,25S,26-Trihydroxy-Δ^22-cholecalciferol] | undetectable | 0.05 ± 0.03 | 0.09 ± 0.04 | 0.24 ± 0.07 | 1.02 ± 0.34 | 0.005 ± 0.002 μg per culture | 0.01 ± 0.002 | 0.04 ± 0.01 | 0.06 ± 0.03 | 0.20 ± 0.03
